Laboratory results as given in patent publication US8163731B2, “Method and dosage regimens for eliminating a chemical substance in blood” (Rhodes Technologies, priority 2008, dated 2012).

Key:
[1] = tested on: physical dependence to opioids and related substances; experiment: Multidose tapering of buprenorphine in opiate-dependent patients (cessation success, withdrawal symptoms); format: in vivo; details: for Successful, percent of total patients: calculated blood level reduction no greater than 5% from previous period
Excerpt: After several years of clinical experience in the use of buprenorphine, it became clear that a single dose in mg of buprenorphine given over a short period of time would not lead to a drug-free status. […]. If the dose is reduced rapidly, the patient reacts with both physical and emotional symptoms of withdrawal. By reducing the dose slowly, the patients experience a period where there is little or no decline in biologically available narcotic and thus feel more secure as they are not experiencing even minor withdrawal symptoms.
Commercially available buprenorphine (Suboxone® & Subutex®) is available in strengths of 8.0 mg as well as 2.0 mg. However, that these medications would not suffice for a successful program, because the 2.0 mg dose was too large and too steep cut-off. […]. During inception of development of multidose treatment that led to the current invention, and using the then current state of art, buprenorphine troches for the treatment (not maintenance) of opiate dependence was used on a patient that was a person who was using I.V. 5-8 bags of heroin daily. They were started on 3 mg of buprenorphine and remained on this dose for three days. After a two day period without opiates, an attempt was made to administer the opiate blocker naltrexone which was intended to assure that a person is indeed drug free and remained so.
Many alterations in treatment protocols to prevent withdrawal were made. The alterations included a greater variety of doses ranging from 8.0 to 4.0 mg administered in a deceasing amount over time. At first the dose strengths varied from 8.0 mg administered once daily with a daily reduction of 2.0 mg until to 4.0 mg, and then to 2.0 mg.
A 6.0 mg dose was then added to the protocol. This lengthened the withdrawal period from three days to seven. This change was occasioned by the observation that the drop from 8.0 mg to 4.0 mg was all too frequently accompanied by a significant return of withdrawal symptoms and, at times, a return to use.
Despite these alterations in the treatment protocol the results were still not what were expected. The observation was made that a cut-off of 2.0 mg would cause a return of withdrawal symptoms within 24 hrs and thus the likelihood of a return to drug use before naltrexone could be started. […] As a result, a 1.0 mg lozenges were administered
A fractional buprenorphine dose was administered to reduce the severity of withdrawal symptoms. This strategy was in response to ongoing withdrawal symptoms following the “conclusion” of withdrawal or a “final” 3.0 mg dose of buprenorphine. To mitigate the withdrawal symptoms, a dose of 1.5 mg of buprenorphine was given to the patient. This particular treatment was unsuccessful as the ongoing withdrawal symptoms were too difficult for the patient who relapsed as a result.
Stepwise increments were amended to proceed in the sub 1.0 mg dose range. The taper at this time was 1.0 mg, 0.75 mg, 0.5 mg, to 0.25 mg then a four day period of blank troches followed by an upward taper of troches with naltrexone going from 0.5 mg of naltrexone to 10.0 mg of naltrexone. With serial doses of 0.25 mg of buprenorphine many patients continued to report perceptible and, in some cases, intolerable withdrawal symptoms.
As a result of the ongoing objective patient observations and patient's subjective complaints of withdrawal symptoms, a 0.1 mg dose was introduced. Additionally, a dose of 1.5 mg as well as a dose of 0.75 mg was added to the dose progression series. Although withdrawal complaints were limited, they were still present, and generally in the late phases of treatment. […] A strategy of 0.1 mg decreases in dose was implemented when the patients reached the 4.0 mg dose range (i.e., 2.0 mg twice a day) and 0.01 mg deceases in the below 1.0 mg range. The effect of this change also to extended the withdrawal period to about six to eight weeks from four weeks. […]

smoking cessation = details: very large reduction steps; cited from earlier work
[2] = tested on: opiate blocker; withdrawal symptoms; experiment: Naltrexone given after the end of buprenorphine treatment (precipitated withdrawal)
Experimental: Since naltrexone is administered following the cessation of narcotic, there can be no residual narcotic in a patient's system, otherwise the naltrexone will push the patient into withdrawal. Therefore, the patient must wait about a week before to start naltrexone, even with extremely low doses, doses that may be considered to be homeopathic but are high enough to cause withdrawal symptoms if the narcotic is not fully washed out.

buprenorphine hydrochloride
Successful, percent of total patients ([1]; 1-30 treatment days): 50.7%
Successful, number of patients ([1]; 1-30 treatment days, total 75): 38
Successful, percent of total patients ([1]; 31-60 treatment days): 75.0%
Successful, number of patients ([1]; 31-60 treatment days, total 52): 39
Successful, percent of total patients ([1]; 61-90 treatment days): 90.5%
Successful, number of patients ([1]; 61-90 treatment days, total 21): 19
success rates in achieving freedom from physical dependence to opioids and related substances ([1]; specific gradually decreasing but measured doses of replacement narcotic): ≥ 90%

CN1CCCC1c1cccnc1 (stereo not shown) [nicotine]
clinical success rates over placebo (smoking cessation): 6-12%

O=C1CC[C@@]2(O)[C@H]3Cc4ccc(O)c5c4[C@@]2(CCN3CC2CC2)[C@H]1O5 [naltrexone]
withdrawal symptoms caused by naltrexone ([2]; 12.5 mg, up to five days after the end of buprenorphine treatment): causes a return of withdrawal symptoms
withdrawal symptoms caused by naltrexone ([2]; given after a two day period without opiates following 3 mg buprenorphine for three days): severe withdrawal symptoms
